# “Also recorded” adds a separate entry of the source. No end group written: not given here.
# Legend:
# [1] = system: human cervix cancer SiHa cells; assay: Cell migration, wound healing assay; format: cell-based; details: peptide 500 μM, 24 hours
# Method: (§1) For the migration studies, 5×10^5 or 10^6 cells were distributed on 6-well plates and let them to adhere for 2 hours at 37° C./5% CO2. The culture medium was changed and the peptide was added at 500 μM overnight. The cell monolayer was “wounded” with a P1000 tip and incubated for 24 hours. Images of untreated cells (control) and peptide treated cells were captured with a JENOPTIK camera. Cell numbers (nuclei) were determined using the Pixcavator software version 5.0.
# [2] = system: human glioblastoma U87 cells; assay: Cell migration, wound healing assay; format: cell-based; details: peptide 500 μM, 24 hours
# Method: as §1
# SiHa cells = assay: Detection of peptide-treated hyper adherent cells (MTT after trypsin-EDTA); format: cell-based, human; details: 500 μM peptide, 24 hours
# Method: Viable SiHa cells (1×10^4)/well were distributed on a 96-well culture plate and incubated for 4 hours at 37° C. in a humidified chamber with 5% CO2. Fresh medium containing different peptide concentrations of RB9 (SEQ ID NO: 8) and RB10 (SEQ ID NO: 9) ranging from 0 to 1 mM (i.e., 0, 0.25, 0.5 and 1 mM) was added to the wells and incubated for 24 hours. The medium was then aspirated; cells were detached with 30 μl/well of trypsin-EDTA for five minutes at 37° C. and gently washed with PBS. Hyper-adherent cells were incubated for 4 hours with 0.5 mg/mL of MTT [3-(4,5-dimethylthiazol-2-yl)-2,5-diphenyltetrazolium bromide] in fresh medium and formazan crystals were solubilized adding 1 volume of 10% SDS solution overnight. Intensity was measured using a plate reader at 570 nm.
# B16F10-Nex2 cells [3] = assay: Growth inhibition (cell number by image analysis); format: cell-based, murine
# Method: Viable B16F10-Nex2 cells (5×10^5)/well were distributed on a 6-well culture plate and incubated for 4 hours. Fresh medium containing 0 or 500 μM of RB10 ([…]) was added to the wells and incubated for 12 hours. Image was captured using a camera (Jenoptik) with the software Progres 2.8. The number of cells was detected using the software pixcavator (intelligent perception). After 12 hours with 0.5 mM of RB10, melanoma cells had fewer cells by 39% (FIG. 15); these cells were still able to proliferate but not to migrate. […] Magnification ×100.
# B16F10-Nex2 cells [4] = assay: Superoxide anion production, dihydroethidium (DHE) assay; format: cell-based, murine; details: 1 mM, 18 hours
# Method: Based on the internal interactions of components, such as, actin and peroxides in tumor cells, even leading to apoptosis, the production of anion superoxide in tumor cells treated with RB10 was examined by dihydroethidium (DHE) assay.
# B16F10-Nex2 cells were treated with 1 mM RB10 for 18 hours or 5 mM H2O2 for 20 minutes. Treated cells with peptide or H2O2 and untreated cells were then incubated with DHE. Conversion of DHE to ethidium by oxidation was observed using fluorescence microscopy (Magnification 600×).
# HL-60 cells = assay: Cell viability, Trypan blue count or MTT assay; format: cell-based, human; details: for cytotoxicity to HL-60 cells: cells growing in suspension, Trypan blue / MTT
# Method: Viable HL-60 cells (1×10^4)/well were distributed on a 96-well culture plate and incubated for 4 hours with different concentrations of RB9 (SEQ ID NO: 8) ranging from 0 to 1 mM for 24 hours. Cell viability was directly measured by counting in a Neubauer chamber with Trypan blue or estimated by the colorimetric MTT assay.
# [5] = system: A2058 human melanoma cells; assay: Cell adherence, trypsin-EDTA detachment, Trypan blue count; format: cell-based; details: 24 hours; FIGS. 2A-2D (SKBR3 and A2058), cell line not given; read-out: peptide concentration at which 50% of cells were trypsin-EDTA resistant
# Method: SKBR3 cells (1×10^4) were cultivated in 96-well plates and incubated with RB9 (SEQ ID NO: 8) and RB10 (SEQ ID NO: 9). After 18 hours incubation, viable cells detached with trypsin/EDTA were counted using Trypan blue exclusion staining. Assays were performed in triplicate in two independent experiments. The A2058 human melanoma cells (1×10^4) were incubated for 4 hours at 37° C. in a humidified chamber with 5% CO2. Fresh media containing different peptide concentrations of RB9 and RB10 ranging from 0 to 1 mM (i.e., 0, 0.25, 0.5 and 1 mM) was added to the wells and incubated for 24 hours. The media was then aspirated, cells were detached with 30 μl/well of trypsin-EDTA for five minutes at 37° C. and viable cells were counted in a Neubauer chamber using Trypan blue. As shown in FIGS. 2A-2D, 50% of cells were trypsin-EDTA resistant at 630 and 610 μM RB9 and RB10, respectively.
# [6] = In vivo peptide toxicity evaluation (histopathology); parameters: species or system mice; details: 300 μg via i.p., seven consecutive days
# Method: Mice were injected with RB9 (SEQ ID NO: 8) for seven consecutive days (300 μg via i.p.) and were sacrificed thereafter for histopathology. […] Also the peptides were not hemolytic as shown in FIG. 21 for RB10M3 (SEQ ID NO: 31).
# [7] = Peptide degradation by human plasma (HPLC / mass spectrum); format: in vitro ADME
# Method: (§2) Peptides have variable half lives in the plasma due to the proteolytic activity and the renal filtration, which are relevant aspects in the pharmacokinetics of drug candidates.
# To analyze the peptide in HPLC and Mass Spectrum, an aliquot of 200 μL was transferred to a new Eppendorf tube and proteins were precipitated with 20 μL trifluoroacetic acid for 5 minutes at 4° C. After centrifugation for 10 minutes at 14,000 rpm, the supernatant was analyzed in an LC/ESI-MS (Waters).
# Regarding assays for determining time-lapse plasma degradation of RB9 peptide, peptide degradation by human plasma was monitored in HPLC and Mass spectra every 30 minutes as described above (FIG. 12). About 50% RB9 was cleaved after 2 hours of incubation at 37° C.
# Solubility comparison = format: physicochemical
# Description: as §2
Compound,inhibition of cell migration [1],inhibition of cell migration [2],tumor cells resistant to trypsinization (SiHa cells) [%],"fewer cells than control (B16F10-Nex2 cells [3]; 0.5 mM, 12 hours) [%]",inhibition of growth (B16F10-Nex2 cells [3]; 12 hours incubation),reaction with dihydroethidium (anion superoxide production) (B16F10-Nex2 cells [4]),cytotoxicity to HL-60 cells (HL-60 cells),EC50 [5] [µM],"toxicity, morphological alterations in liver, lung, heart, kidney and spleen [6]","degradation in human plasma at 24 hours ([7]; 24 hours, 37° C.)",peptide cleaved / degraded in human plasma ([7]; after 2 hours of incubation at 37° C.) [%],"metabolised at 2 h, 1.67 mg/mL ([7]; human, human plasma, after 2 hours of incubation at 37° C., read-out: peptide cleaved / degraded in human plasma) [%]","EC50 (HL-60 cells; 24 hours, Trypan blue and MTT, read-out: concentration reducing cell viability by 50% (ED50)) [µM]",solubility (comparison) (Solubility comparison)
"CARGETARATFAYWGQG-NH2 [RB10, CARGETARATFAYWGQG-NH2]",complete or almost complete inhibition,partial migration inhibition,80,39,partial inhibition,positive,mildly cytotoxic,610,,,,,,
"C[C@@H]1NC(=O)[C@H](CCCNC(=N)N)NC(=O)[C@H](C)NC(=O)[C@H]([C@@H](C)O)NC(=O)[C@H](CCC(=O)O)NC(=O)CNC(=O)[C@H](CCCNC(=N)N)NC(=O)[C@H](C)NC(=O)[C@@H](N)CSSC[C@@H](C(N)=O)NC(=O)CNC(=O)[C@H](CCC(N)=O)NC(=O)CNC(=O)[C@H](Cc2c[nH]c3ccccc23)NC(=O)[C@H](Cc2ccc(O)cc2)NC(=O)[C@H](C)NC(=O)[C@H](Cc2ccccc2)NC(=O)[C@H]([C@@H](C)O)NC1=O [RB9, CARGETARATFAYWGQGC-NH2]",no effect; also recorded: non-inhibition,poorly; also recorded: partial inhibition,30,,,,mildly cytotoxic; also recorded: mild cytotoxicity,630,No signs of toxicity or morphological alterations,whole peptide was degraded; also recorded: total degradation,50,~50,920 to 930,more soluble than RB10
